Data: article PMC4012445, “Spirocyclic Drimanes from the Marine Fungus Stachybotrys sp. Strain MF347” (Marine Drugs, 2014)
Counter-ions that a name gives are not always drawn. Like-named read-outs stand apart in the source and are kept apart here.

Experiments:
[1] = tested on: methicillin-resistant Staphylococcus aureus (MRSA) (DSM 18827); experiment: Antibiotic activity against methicillin-resistant Staphylococcus aureus; format: cell-based; settings: read-out: IC50, S. aureus MRSA
Method: (§1) The antimicrobial activities of 1–13 against the bacterium Bacillus subtilis (DSM 347) and the human pathogenic yeast Candida albicans (DSM 1386) were determined according to Ohlendorf et al., 2012 [26].The bioassays using the clinically relevant bacterial strains Staphylococcus epidermidis (DSM 20044), the methicillin-resistant Staphylococcus aureus (MRSA) (DSM 18827), and Klebsiella pneumoniae DSM 30104 were performed as described by Silber et al., 2013 [27]. S. aureus and K. pneumoniae were investigated in the same manner as S. epidermidis. […] The concentration of the compounds used in the initial bioassays was 100 µM (antibiotic tests), 50 µM (cytotoxic tests), and 10 µM (enzymatic tests), respectively. […] Positive controls were carried out with chloramphenicol (bacteria), nystatin (yeast), clotrimazole (fungi), tamoxifen citrate (cell lines), rolipram (PDE-4B2), huperzine (AchE), and TDZD-8 (GSK-3β).

[2] = tested on: Bacillus subtilis (DSM 347); experiment: Antibiotic activity against Bacillus subtilis; format: cell-based; settings: DSM347, growth inhibition, 0.1–50 µM analyzed twice in duplicates, read-out: IC50, antibiotic activity, B. subtilis
Method: as §1

[3] = tested on: Staphylococcus epidermidis (DSM 20044); experiment: Antibiotic activity against Staphylococcus epidermidis; format: cell-based; settings: DSM20044, growth inhibition, 0.1–50 µM analyzed twice in duplicates, read-out: IC50, antibiotic activity, S. epidermidis
Method: as §1

[4] = Cytotoxic activity against NIH-3T3; format: cell-based
Method: The concentration of the compounds used in the initial bioassays was 100 µM (antibiotic tests), 50 µM (cytotoxic tests), and 10 µM (enzymatic tests), respectively. […] Positive controls were carried out with chloramphenicol (bacteria), nystatin (yeast), clotrimazole (fungi), tamoxifen citrate (cell lines), rolipram (PDE-4B2), huperzine (AchE), and TDZD-8 (GSK-3β).

[5] = in vitro
[6] = NIH-3T3 fibroblast cells, mouse fibroblasts cell line, 0.1–50 µM analyzed twice in duplicates, read-out: IC50, cytotoxic activity, NIH-3T3
[7] = human, HepG2 hepatocellular carcinoma cells
[8] = growth inhibition, 0.1–50 µM analyzed twice in duplicates

SMILES | IC50 [1] [µM] | IC50 [2] [µM] | IC50 [3] [µM] | IC50 [4, 6] [µM] | IC50 [5, 7] [µM] | IC50 [1, 8] [µM] | IC50 ([4]; mouse fibroblasts cell line, 0.1–50 µM analyzed twice in duplicates, read-out: IC50, cytotoxic activity, NIH-3T3) [µM] | IC50 [5] [µM] | IC50 ([4]; mouse) [µM] | IC50 ([5]; human) [µM]
O=C(N[C@H](CO)[C@H](O)c1ccc([N+](=O)[O-])cc1)C(Cl)Cl [Chloramphenicol, chloramphenicol, reference compound] | 2.46 | 1.45 | 1.81 |  |  |  |  |  |  | 
CC1CCC2C(C)(C)C(O)CCC2(C)C12Cc1c(O)cc3c(c1O2)CN(C1OCc2cc(O)c4c(c21)OC1(C4)C(C)CCC2C(C)(C)C(O)CCC21C)C3=O (stereo not shown) [Compound 2, stachyin B] |  | 1.42 | 1.02 | 13 | 14.3 | 1.75 |  |  |  | 
C[C@H]1CC[C@@H]2C(C)(C)[C@@H](O)[C@H](O)C[C@@]2(C)[C@]12Cc1c(O)cc3c(c1O2)CN(CCCCC(C(=O)O)N1Cc2c(cc(O)c4c2O[C@@]2(C4)[C@@H](C)CC[C@@H]4C(C)(C)[C@@H](O)[C@@H](O)C[C@]42C)C1=O)C3=O (stereo partly shown) [Compound 11, stachybocin B] |  | 1.77 | 4.44 | > 50 | > 50 | 3.94 |  |  |  | 
C[C@H]1CC[C@@H]2C(C)(C)[C@@H](O)CC[C@@]2(C)[C@]12Cc1c(O)cc3c(c1O2)CN(CCCCC(C(=O)O)N1Cc2c(cc(O)c4c2O[C@@]2(C4)[C@@H](C)CC[C@@H]4C(C)(C)[C@@H](O)CC[C@]42C)C1=O)C3=O (stereo partly shown) [Compound 12, stachybocin A] | 3.71 | 2.03 | 2.84 |  |  |  | > 50 | > 50 |  | 
CC(C)=CCC/C(C)=C/CC/C(C)=C/Cc1c(O)cc(C)c(C=O)c1O [Compound 13, ilicicolin B] |  | 1.06 | 3.18 | 30 | > 50 | 0.74 |  |  |  | 
CC/C(=C(\c1ccccc1)c1ccc(OCCN(C)C)cc1)c1ccccc1 [tamoxifen citrate, reference compound] |  |  |  |  |  |  |  |  | 16.4 | 17.9
